Results on two compounds are retold here after ChEMBL document CHEMBL1212922, “Crystal structure-based selective targeting of the pyridoxal 5'-phosphate dependent enzyme kynurenine aminotransferase II for cognitive enhancement” (J Med Chem, 2010).

In assay [1] the target is T1, Kynurenine/alpha-aminoadipate aminotransferase, mitochondrial (Homo sapiens, UniProt Q8N5Z0). Nature of the assay: Inhibition of human recombinant MBP-KAT2 expressed in HEK293 cells assessed as conversion of L-kynurenine to kynurenic acid after 1 hr.
T1 sequence (Q8N5Z0 whole entry): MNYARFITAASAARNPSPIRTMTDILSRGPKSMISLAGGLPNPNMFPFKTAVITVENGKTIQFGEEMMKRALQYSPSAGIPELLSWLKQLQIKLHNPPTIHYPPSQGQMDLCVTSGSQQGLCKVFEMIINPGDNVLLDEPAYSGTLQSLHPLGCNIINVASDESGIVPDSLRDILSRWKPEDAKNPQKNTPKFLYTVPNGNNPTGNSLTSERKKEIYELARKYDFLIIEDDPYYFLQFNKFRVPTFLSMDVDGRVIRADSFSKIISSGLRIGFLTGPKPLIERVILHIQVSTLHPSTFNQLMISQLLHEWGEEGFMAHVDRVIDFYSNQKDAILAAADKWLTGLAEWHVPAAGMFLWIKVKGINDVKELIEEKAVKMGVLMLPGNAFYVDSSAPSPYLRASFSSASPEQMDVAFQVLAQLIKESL
Assay [2] has as its target Kynurenine 3-monooxygenase (Homo sapiens) (UniProt O15229). Nature of the assay: Inhibition of kynurenine 3-monooxygenase in human prefrontal cortex homogenates at 100 uM. The assay is classed as tissue-based.
The target of assay [3] is T1, Kynurenine/alpha-aminoadipate aminotransferase, mitochondrial. Nature of the assay: Inhibition of KAT2 in human prefrontal cortex homogenates. The assay is classed as tissue-based.
In assay [4] the target is T2, Kynureninase (Homo sapiens) (UniProt Q16719).
T2 sequence (whole entry): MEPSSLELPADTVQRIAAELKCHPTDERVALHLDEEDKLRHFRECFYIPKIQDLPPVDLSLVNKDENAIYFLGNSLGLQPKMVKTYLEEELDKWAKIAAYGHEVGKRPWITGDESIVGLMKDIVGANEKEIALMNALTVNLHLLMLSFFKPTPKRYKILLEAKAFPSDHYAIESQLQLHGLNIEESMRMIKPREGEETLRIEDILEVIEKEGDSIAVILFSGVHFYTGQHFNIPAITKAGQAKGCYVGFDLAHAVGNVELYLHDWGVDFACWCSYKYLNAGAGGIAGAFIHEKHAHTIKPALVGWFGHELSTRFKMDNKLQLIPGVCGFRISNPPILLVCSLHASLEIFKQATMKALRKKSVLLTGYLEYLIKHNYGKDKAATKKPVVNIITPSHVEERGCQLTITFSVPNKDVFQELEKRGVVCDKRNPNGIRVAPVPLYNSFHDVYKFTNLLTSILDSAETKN
Nature of the assay: Inhibition of kynureninase in human prefrontal cortex homogenates at 100 uM. The assay is classed as tissue-based.

Assay [5] addresses T3, Kynurenine--oxoglutarate transaminase 1 (Homo sapiens, UniProt Q16773).
T3 sequence (Q16773 whole entry): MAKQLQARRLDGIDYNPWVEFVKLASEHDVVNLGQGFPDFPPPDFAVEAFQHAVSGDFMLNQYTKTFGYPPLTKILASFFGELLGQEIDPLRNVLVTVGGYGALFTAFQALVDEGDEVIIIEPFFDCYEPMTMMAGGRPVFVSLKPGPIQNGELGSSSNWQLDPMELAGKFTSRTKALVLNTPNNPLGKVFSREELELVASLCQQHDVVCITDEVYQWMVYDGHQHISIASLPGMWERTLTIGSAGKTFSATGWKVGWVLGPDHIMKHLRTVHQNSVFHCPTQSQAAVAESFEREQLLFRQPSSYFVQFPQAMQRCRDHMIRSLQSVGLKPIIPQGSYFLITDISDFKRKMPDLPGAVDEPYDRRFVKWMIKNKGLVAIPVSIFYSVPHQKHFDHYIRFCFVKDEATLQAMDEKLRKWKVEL
Nature of the assay: Inhibition of KAT1 in human prefrontal cortex homogenates. The assay is classed as tissue-based.

Assay [6] addresses Kynurenine/alpha-aminoadipate aminotransferase, mitochondrial (Rattus norvegicus, UniProt Q64602). The assay is described as follows: Inhibition of rat brain KAT2.
The target in assay [7] is T3, Kynurenine--oxoglutarate transaminase 1. Nature of the assay: Inhibition of human recombinant MBP-KAT1 expressed in Escherichia coli BL21 assessed as conversion of L-kynurenine to kynurenic acid after 1 hr.

Kynurenine/alpha-aminoadipate aminotransferase, mitochondrial (Rattus norvegicus, UniProt Q64602), sequence (Q64602 whole entry): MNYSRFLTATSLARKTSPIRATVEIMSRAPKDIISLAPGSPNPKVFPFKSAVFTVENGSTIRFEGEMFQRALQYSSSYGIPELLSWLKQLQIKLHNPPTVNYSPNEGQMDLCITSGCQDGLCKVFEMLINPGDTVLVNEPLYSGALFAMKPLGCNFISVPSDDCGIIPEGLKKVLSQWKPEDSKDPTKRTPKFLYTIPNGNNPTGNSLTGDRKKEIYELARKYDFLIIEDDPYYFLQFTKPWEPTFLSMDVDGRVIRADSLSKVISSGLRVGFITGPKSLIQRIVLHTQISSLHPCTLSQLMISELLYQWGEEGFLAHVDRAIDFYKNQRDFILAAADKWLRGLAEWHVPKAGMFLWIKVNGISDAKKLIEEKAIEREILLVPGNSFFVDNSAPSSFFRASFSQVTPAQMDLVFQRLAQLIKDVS
Kynurenine 3-monooxygenase (Homo sapiens), sequence (O15229 whole entry, looked up): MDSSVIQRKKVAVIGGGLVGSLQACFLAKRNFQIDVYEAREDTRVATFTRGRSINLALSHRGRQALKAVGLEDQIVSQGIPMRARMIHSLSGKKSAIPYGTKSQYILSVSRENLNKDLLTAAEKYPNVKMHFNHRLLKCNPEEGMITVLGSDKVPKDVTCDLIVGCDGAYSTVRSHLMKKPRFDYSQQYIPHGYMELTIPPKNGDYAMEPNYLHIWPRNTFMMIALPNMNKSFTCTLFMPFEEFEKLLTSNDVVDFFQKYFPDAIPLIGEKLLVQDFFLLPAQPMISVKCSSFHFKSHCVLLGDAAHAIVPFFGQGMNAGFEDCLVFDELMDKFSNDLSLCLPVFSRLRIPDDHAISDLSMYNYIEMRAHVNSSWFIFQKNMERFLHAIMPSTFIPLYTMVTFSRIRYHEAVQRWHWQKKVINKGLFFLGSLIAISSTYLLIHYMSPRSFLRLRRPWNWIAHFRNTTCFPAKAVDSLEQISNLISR

Consider `C[C@@H]1COc2c(N3CCN(N)CC3)c(F)cc3c(=O)c(C(=O)O)cn1c23`, for which the IC50 in assay [1] worked out at 1500 nM.
In the case of `C[C@H]1COc2c(N3CCN(N)CC3)c(F)cc3c(=O)c(C(=O)O)cn1c23`, the IC50 in assay [1] is 910 nM; in assay [3], 1000 nM; in assay [5], above 30000 nM; in assay [6], 1000 nM; in assay [7], above 30000 nM. Besides, the inhibition worked out at 8.3% in assay [2] and 5.1% in assay [4].

For orientation: IC50 means the concentration that inhibits the measured activity by half. What is called inhibition is the share of the control response that was lost under treatment. A low value points to a response near the control.
